Laboratory results: US10954228B2 (NATIONAL INSTITUTES OF HEALTH, UNITED STATES DEPARTMENT OF …, priority 2016, dated 2021)

target: Human LDHA (Homo sapiens (Human), UniProt P00338); assay: human LDHA primary biochemical assay; conditions: biochemical LDHA inhibitory activity, assay of Example 1; activity level classes defined in nM
Description: This example describes a human LDHA primary biochemical assay employed in the characterization of a compound of formula (I) in an embodiment of the invention.
Test compounds were placed in a Greiner Bio-One (Monroe, N.C.) 1536-well black solid bottom assay plate. 200 millimolar (mM) Tris HCl, pH 7.4, 100 micromolar (μM) EDTA and 0.01% TWEEN-20™, final concentration, was used as the assay buffer. The LDHA reagent was 2 nanomolar (nM) Human LDHA (Meridian Life Science, Inc., Memphis, Tenn.), final concentration, in assay buffer. The substrate reagent was 0.06 mM NADH and 0.2 mM sodium pyruvate, final concentration, in assay buffer. The resazurin/diaphorase coupling reagent was 0.037 mM resazurin and 0.133 milligrams per milliliter (mg/mL) diaphorase, final concentration, in assay buffer. The inhibition of LDHA activity was measured by fluorescence emission.

| SMILES | IC50 |
| --- | --- |
| Cc1cnc(-c2cccc(-c3nn(-c4nc(C(=O)O)cs4)c(CC4CC4)c3Cc3ccc(S(N)(=O)=O)c(F)c3)c2)nc1 [Compound 217] | < 100 nM |
| NS(=O)(=O)c1ccc(Cc2c(-c3cccc(-c4ccc(C(F)(F)F)cc4)c3)nn(-c3nc(C(=O)O)cs3)c2CC2CC2)cc1F [Compound 219, 2-(5-(cyclopropylmethyl)-4-(3-fluoro-4-sulfamoylbenzyl)-3-(4′-(trifluoromethyl)-[1,1′-biphenyl]-3-yl)-1H-pyrazol-1-yl)thiazole-4-carboxylic acid] | < 100 nM |
| NS(=O)(=O)c1ccc(Cc2c(-c3cccc(-c4ccc5c(c4)CCC5)c3)nn(-c3nc(C(=O)O)cs3)c2CC2CC2)cc1F [Compound 220, 2-(5-(cyclopropylmethyl)-3-(3-(2,3-dihydro-1H-inden-5-yl)phenyl)-4-(3-fluoro-4-sulfamoylbenzyl)-1H-pyrazol-1-yl)thiazole-4-carboxylic acid] | < 100 nM |
| NS(=O)(=O)c1ccc(Cc2c(-c3cccc(-c4ccc(C5CC5)cc4)c3)nn(-c3nc(C(=O)O)cs3)c2CC2CC2)cc1F [Compound 222, 2-(3-(4′-cyclopropyl-[1,1′-biphenyl]-3-yl)-5-(cyclopropylmethyl)-4-(3-fluoro-4-sulfamoylbenzyl)-1H-pyrazol-1-yl)thiazole-4-carboxylic acid] | 100 to 1000 nM |
| CCc1cc(-c2cc(-c3nn(-c4nc(C(=O)O)cs4)c(CC4CC4)c3Cc3ccc(S(N)(=O)=O)c(F)c3)ccc2F)ccc1OC [Compound 223, 2-(5-(cyclopropylmethyl)-3-(3′-ethyl-6-fluoro-4′-methoxy-[1,1′-biphenyl]-3-yl)-4-(3-fluoro-4-sulfamoylbenzyl)-1H-pyrazol-1-yl)thiazole-4-carboxylic acid] | 100 to 1000 nM |
| NS(=O)(=O)c1ccc(Cc2c(-c3cccc(-c4ccc(C(F)(F)C(F)(F)F)cc4)c3)nn(-c3nc(C(=O)O)cs3)c2CC2CC2)cc1F [Compound 224, 2-(5-(cyclopropylmethyl)-4-(3-fluoro-4-sulfamoylbenzyl)-3-(4′-(perfluoroethyl)-[1,1′-biphenyl]-3-yl)-1H-pyrazol-1-yl)thiazole-4-carboxylic acid] | 100 to 1000 nM |
| NS(=O)(=O)c1ccc(Cc2c(-c3ccc(F)c(-c4ccc(C(F)(F)C(F)(F)F)cc4)c3)nn(-c3nc(C(=O)O)cs3)c2CC2CC2)cc1F [Compound 225, 2-(5-(cyclopropylmethyl)-3-(6-fluoro-4′-(perfluoroethyl)-[1,1′-biphenyl]-3-yl)-4-(3-fluoro-4-sulfamoylbenzyl)-1H-pyrazol-1-yl)thiazole-4-carboxylic acid] | 100 to 1000 nM |
| CC(C)Cc1ccc(-c2cccc(-c3nn(-c4nc(C(=O)O)cs4)c(CC4CC4)c3Cc3ccc(S(N)(=O)=O)c(F)c3)c2)cc1 [Compound 226, 2-(5-(cyclopropylmethyl)-4-(3-fluoro-4-sulfamoylbenzyl)-3-(4′-isobutyl-[1,1′-biphenyl]-3-yl)-1H-pyrazol-1-yl)thiazole-4-carboxylic acid] | 100 to 1000 nM |
| CC(C)Cc1ccc(-c2cc(-c3nn(-c4nc(C(=O)O)cs4)c(CC4CC4)c3Cc3ccc(S(N)(=O)=O)c(F)c3)ccc2F)cc1 [Compound 227, 2-(5-(cyclopropylmethyl)-3-(6-fluoro-4′-isobutyl-[1,1′-biphenyl]-3-yl)-4-(3-fluoro-4-sulfamoylbenzyl)-1H-pyrazol-1-yl)thiazole-4-carboxylic acid] | 100 to 1000 nM |
| Cc1cc(-c2cccc(-c3nn(-c4nc(C(=O)O)cs4)c(CC4CC4)c3Cc3ccc(S(N)(=O)=O)c(F)c3)c2)ccc1O [Compound 228, 2-(5-(cyclopropylmethyl)-4-(3-fluoro-4-sulfamoylbenzyl)-3-(4′-hydroxy-3′-methyl-[1,1′-biphenyl]-3-yl)-1H-pyrazol-1-yl)thiazole-4-carboxylic acid] | < 100 nM |
| NS(=O)(=O)c1ccc(Cc2c(-c3cccc(-c4ccc(O)c(F)c4)c3)nn(-c3nc(C(=O)O)cs3)c2CC2CC2)cc1F [Compound 229, 2-(5-(cyclopropylmethyl)-3-(3′-fluoro-4′-hydroxy-[1,1′-biphenyl]-3-yl)-4-(3-fluoro-4-sulfamoylbenzyl)-1H-pyrazol-1-yl)thiazole-4-carboxylic acid] | < 100 nM |
| CC(C)c1ccc(-c2cccc(-c3nn(-c4nc(C(=O)O)cs4)c(CC4CC4)c3Cc3ccc(S(N)(=O)=O)c(F)c3)c2)cc1F [Compound 230, 2-(5-(cyclopropylmethyl)-3-(3′-fluoro-4′-isopropyl-[1,1′-biphenyl]-3-yl)-4-(3-fluoro-4-sulfamoylbenzyl)-1H-pyrazol-1-yl)thiazole-4-carboxylic acid] | 100 to 1000 nM |
| Cc1ccc(C#Cc2cccc(-c3nn(-c4nc(C(=O)O)cs4)c(CC4CC4)c3Cc3ccc(S(N)(=O)=O)c(F)c3)n2)s1 [Compound 231, 2-(5-(cyclopropylmethyl)-4-(3-fluoro-4-sulfamoylbenzyl)-3-(6-((5-methylthiophen-2-yl)ethynyl)pyridin-2-yl)-1H-pyrazol-1-yl)thiazole-4-carboxylic acid] | < 100 nM |
| Cc1ccc(C#Cc2cccc(-c3nn(-c4nc(C(=O)O)cs4)c(CCC4CC4)c3Cc3ccc(S(N)(=O)=O)c(F)c3)c2)o1 [Compound 232, 2-(5-(2-cyclopropylethyl)-4-(3-fluoro-4-sulfamoylbenzyl)-3-(3-((5-methylfuran-2-yl)ethynyl)phenyl)-1H-pyrazol-1-yl)thiazole-4-carboxylic acid] | < 100 nM |
| Cc1ccc(C#Cc2ccc(-c3nn(-c4nc(C(=O)O)cs4)c(CC4CC4)c3Cc3ccc(S(N)(=O)=O)c(F)c3)s2)s1 [Compound 233, 2-(5-(cyclopropylmethyl)-4-(3-fluoro-4-sulfamoylbenzyl)-3-(5-((5-methylthiophen-2-yl)ethynyl)thiophen-2-yl)-1H-pyrazol-1-yl)thiazole-4-carboxylic acid] | 100 to 1000 nM |
| Cc1cnc(C#Cc2cccc(-c3nn(-c4nc(C(=O)O)cs4)c(CCC4CC4)c3Cc3ccc(S(N)(=O)=O)c(F)c3)c2)s1 [Compound 234, 2-(5-(2-cyclopropylethyl)-4-(3-fluoro-4-sulfamoylbenzyl)-3-(3-((5-methylthiazol-2-yl)ethynyl)phenyl)-1H-pyrazol-1-yl)thiazole-4-carboxylic acid] | < 100 nM |
| Cc1ncc(C#Cc2cccc(-c3nn(-c4nc(C(=O)O)cs4)c(CCC4CC4)c3Cc3ccc(S(N)(=O)=O)c(F)c3)c2)s1 [Compound 235, 2-(5-(2-cyclopropylethyl)-4-(3-fluoro-4-sulfamoylbenzyl)-3-(3-((2-methylthiazol-5-yl)ethynyl)phenyl)-1H-pyrazol-1-yl)thiazole-4-carboxylic acid] | < 100 nM |
| Cc1nc(C#Cc2cccc(-c3nn(-c4nc(C(=O)O)cs4)c(CC4CC4)c3Cc3ccc(S(N)(=O)=O)c(F)c3)c2)cs1 [Compound 236, 2-(5-(cyclopropylmethyl)-4-(3-fluoro-4-sulfamoylbenzyl)-3-(3-((2-methylthiazol-4-yl)ethynyl)phenyl)-1H-pyrazol-1-yl)thiazole-4-carboxylic acid] | < 100 nM |
| Cc1ccc(C#Cc2csc(-c3nn(-c4nc(C(=O)O)cs4)c(CC4CC4)c3Cc3ccc(S(N)(=O)=O)c(F)c3)c2)s1 [Compound 237, 2-(5-(cyclopropylmethyl)-4-(3-fluoro-4-sulfamoylbenzyl)-3-(4-((5-methylthiophen-2-yl)ethynyl)thiophen-2-yl)-1H-pyrazol-1-yl)thiazole-4-carboxylic acid] | 100 to 1000 nM |
